One assay has as its system MIA-PaCa-2. Briefly: Reactive oxygen species (ROS) production assay. It counts as cell-based. Conditions: MIA-PaCa-2 cells, 10 µM, 24 hours; Figure 3. The protocol: Reactive oxygen species (ROS) production assay
In this experimental example, it was examined that the compound according to the present invention has the effect of increasing reactive oxygen in tumor cells.
MIA-PaCa-2 (Korea Cell Line Bank KCLB No. 21420), a cancer cell line harboring KRAS G12C mutation, was cultured in a cell culture medium containing RPMI1640 (Gibco, USA, catalog no. 11875-119), 10% fetal bovine serum (HyClone, USA, catalog no. SH30919.03), and 1 × diluted HyClone Antibiotic Antimycotic solution (HyClone, USA, catalog no. SV30079.01). 3 × 10^5 cells were seeded per well in a 6-well plate and cultured for 1 day at 37°C under 5% CO2 conditions. […] The cells were then collected in a microtube and analyzed for fluorescence using a BD LSRFortessa™ X-20 Cell Analyzer (BD Biosciences, USA) (excitation wavelength: 488 nm, emission wavelength: 535 nm). The fluorescence intensity due to the increase in reactive oxygen species was measured for 10,000 cells. Among the cells treated with 500 µM hydrogen peroxide, which was the positive control, the section in which the fluorescence intensity increased compared to the cells treated with the blank sample was found, and the average fluorescence intensity of the cells within this section was calculated. […]

The next assay has as its system NCI-H358. Briefly: Cell Growth Inhibition Assay (3D CellTiter-Glo). Type of assay: cell-based. Conditions: Homo sapiens, NCI-H358, 288 h, read-out: Cell growth IC50. The procedure: Cell Growth Inhibition Assay
In this experimental example, the cell growth inhibitory effect of compounds according to the present invention and positive control compounds in tumor cell lines was examined.
The cell culture medium containing the compound was replaced by 100 µL every 3 days. Luminescence analysis was performed using the 3D CellTiter-Glo Luminescent Cell Viability Assay Kit (Promega, USA) (Promega catalog number G9681). […] The percent cell growth inhibition rate was calculated from the measured relative luminescence unit (RLU) as follows. Inhibition rate = 1−((RLU compound−RLU blank)/(RLU control−RLU blank)) X 100 [formula]

The target of assay [1] is T1, SOS1 and KRAS G12C interaction (Homo sapiens, UniProt Q07889).
T1 sequence (Q07889 564-1049 limits assumed): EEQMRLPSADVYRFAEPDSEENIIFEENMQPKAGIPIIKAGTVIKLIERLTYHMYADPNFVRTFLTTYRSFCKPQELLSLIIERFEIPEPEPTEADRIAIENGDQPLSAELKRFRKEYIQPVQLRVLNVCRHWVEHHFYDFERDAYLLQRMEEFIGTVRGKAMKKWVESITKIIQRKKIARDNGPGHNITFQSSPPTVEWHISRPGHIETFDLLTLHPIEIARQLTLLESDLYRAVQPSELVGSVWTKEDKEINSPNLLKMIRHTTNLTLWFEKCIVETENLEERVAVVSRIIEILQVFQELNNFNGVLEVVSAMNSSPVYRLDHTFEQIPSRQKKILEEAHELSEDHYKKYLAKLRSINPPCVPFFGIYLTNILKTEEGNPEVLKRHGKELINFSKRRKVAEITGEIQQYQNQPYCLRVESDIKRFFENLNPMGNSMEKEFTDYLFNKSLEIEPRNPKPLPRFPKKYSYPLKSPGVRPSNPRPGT
Description: Biochemical analysis of the inhibitory activity of SOS1 and KRAS G12C interaction (time-resolved fluorescence, 665/615 nm). The protocol:
Biochemical analysis of the inhibitory activity of SOS1 and KRAS G12C interaction
In this experimental example, the efficacy of the compound according to the present invention in inhibiting the binding of KRAS and SOS1 was biochemically measured. A KRAS G12C working solution was prepared by adding biotin-linked KRAS G12C protein and europium-linked streptavidin to assay buffer solution (20 mM HEPES, 50 mM NaCl, 200 µg/mL […] (BSA), 0.01% Pluronic F127). Then, SOS1, in which a tag consisting of six histidine residues is covalently linked, and anti-histidine tag antibody D2 were added to the assay buffer to prepare an SOS1 working solution. After these two working solutions were added to the wells of a well plate, solutions diluted according to the experimental concentration of the test compound from the 10 mM dimethyl sulfoxide (DMSO) stock solution of the Example compound or positive control compound were added to the wells in 100 nL aliquots using an Echo automatic dispenser (Beckman Coulter, USA), or a DMSO blank was added to the wells.

One compound from EP4737453A1, “NOVEL SELENOPHENE DERIVATIVES” (Aigen Sciences Inc., priority 2023, dated 2025) can be followed below.

Each structure is given as a SMILES string. pIC50: −log10 of the molar value.

The pIC50 is the IC50 on a negative log10 scale, so that one unit is a factor of ten. Consider `CNCc1ccccc1-c1c[se]c([C@@H](C)Nc2nc(C)nc3cc(OC)c(OC)cc23)c1` [Example 1, (R)-6,7-dimethoxyl-2-methyl-N-(1-(4-(2-((methylamino)methyl)phenyl)selenophen-2-yl)ethyl)quinazolin-4-amine], for which the “ROS production compared to the blank sample” value in the assay on MIA-PaCa-2 was “significantly increased ROS production”. Besides, the results for the negative-log IC50 (pIC50) (with NCI-H358; in assay [1]) were 7.68 and 7.73, respectively.
